Measured values published in article PMC6838199 (Scientific Reports, 2019).

Legend:
Experiment in all cases: E1-E2 transthioesterification assay (UbcH5a, Coomassie gel), recombinant purified E1
Type in all cases: biochemical
[1] = target: T1, human UBA1 (hUBA1), ubiquitin E1 activating enzyme (Homo sapiens, UniProt P22314)
T1 construct: N-terminal His-tagged hUBA1
T1 sequence (P22314 2-1058): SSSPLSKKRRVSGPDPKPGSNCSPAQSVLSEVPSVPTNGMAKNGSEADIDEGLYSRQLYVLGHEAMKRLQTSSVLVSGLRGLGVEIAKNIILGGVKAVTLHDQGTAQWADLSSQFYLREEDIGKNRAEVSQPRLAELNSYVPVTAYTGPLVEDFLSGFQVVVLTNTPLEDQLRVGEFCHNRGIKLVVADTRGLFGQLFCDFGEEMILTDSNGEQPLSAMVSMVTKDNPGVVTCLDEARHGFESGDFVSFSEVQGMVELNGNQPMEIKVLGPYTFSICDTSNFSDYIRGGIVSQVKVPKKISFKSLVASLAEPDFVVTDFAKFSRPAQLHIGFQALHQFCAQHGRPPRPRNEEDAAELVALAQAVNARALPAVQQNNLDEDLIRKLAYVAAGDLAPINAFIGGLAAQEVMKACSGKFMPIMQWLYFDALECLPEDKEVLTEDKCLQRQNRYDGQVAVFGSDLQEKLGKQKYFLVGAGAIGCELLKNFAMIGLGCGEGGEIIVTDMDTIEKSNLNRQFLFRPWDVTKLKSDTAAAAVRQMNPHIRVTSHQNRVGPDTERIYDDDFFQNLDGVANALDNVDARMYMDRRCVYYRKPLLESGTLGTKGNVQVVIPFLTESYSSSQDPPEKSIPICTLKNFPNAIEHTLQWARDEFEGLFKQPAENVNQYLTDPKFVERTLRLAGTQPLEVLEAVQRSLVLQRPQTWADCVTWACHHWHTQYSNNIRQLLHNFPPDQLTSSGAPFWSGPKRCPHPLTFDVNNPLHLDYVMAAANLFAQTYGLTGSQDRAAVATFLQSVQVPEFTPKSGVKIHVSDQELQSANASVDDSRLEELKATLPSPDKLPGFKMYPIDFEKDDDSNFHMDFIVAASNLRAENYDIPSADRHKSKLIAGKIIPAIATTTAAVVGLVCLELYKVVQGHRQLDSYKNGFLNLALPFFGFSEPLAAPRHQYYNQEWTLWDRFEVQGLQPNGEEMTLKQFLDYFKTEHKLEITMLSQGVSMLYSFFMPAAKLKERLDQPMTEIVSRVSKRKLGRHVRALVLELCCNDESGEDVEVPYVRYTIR

TbUBA1a [2] = target: T2, TbUBA1a (Trypanosoma brucei, UniProt Q57XC5)
T2 construct: gene Tb08.26A17.680; GST fusion cleaved with HRV 3C
T2 sequence (Q57XC5 1-1055): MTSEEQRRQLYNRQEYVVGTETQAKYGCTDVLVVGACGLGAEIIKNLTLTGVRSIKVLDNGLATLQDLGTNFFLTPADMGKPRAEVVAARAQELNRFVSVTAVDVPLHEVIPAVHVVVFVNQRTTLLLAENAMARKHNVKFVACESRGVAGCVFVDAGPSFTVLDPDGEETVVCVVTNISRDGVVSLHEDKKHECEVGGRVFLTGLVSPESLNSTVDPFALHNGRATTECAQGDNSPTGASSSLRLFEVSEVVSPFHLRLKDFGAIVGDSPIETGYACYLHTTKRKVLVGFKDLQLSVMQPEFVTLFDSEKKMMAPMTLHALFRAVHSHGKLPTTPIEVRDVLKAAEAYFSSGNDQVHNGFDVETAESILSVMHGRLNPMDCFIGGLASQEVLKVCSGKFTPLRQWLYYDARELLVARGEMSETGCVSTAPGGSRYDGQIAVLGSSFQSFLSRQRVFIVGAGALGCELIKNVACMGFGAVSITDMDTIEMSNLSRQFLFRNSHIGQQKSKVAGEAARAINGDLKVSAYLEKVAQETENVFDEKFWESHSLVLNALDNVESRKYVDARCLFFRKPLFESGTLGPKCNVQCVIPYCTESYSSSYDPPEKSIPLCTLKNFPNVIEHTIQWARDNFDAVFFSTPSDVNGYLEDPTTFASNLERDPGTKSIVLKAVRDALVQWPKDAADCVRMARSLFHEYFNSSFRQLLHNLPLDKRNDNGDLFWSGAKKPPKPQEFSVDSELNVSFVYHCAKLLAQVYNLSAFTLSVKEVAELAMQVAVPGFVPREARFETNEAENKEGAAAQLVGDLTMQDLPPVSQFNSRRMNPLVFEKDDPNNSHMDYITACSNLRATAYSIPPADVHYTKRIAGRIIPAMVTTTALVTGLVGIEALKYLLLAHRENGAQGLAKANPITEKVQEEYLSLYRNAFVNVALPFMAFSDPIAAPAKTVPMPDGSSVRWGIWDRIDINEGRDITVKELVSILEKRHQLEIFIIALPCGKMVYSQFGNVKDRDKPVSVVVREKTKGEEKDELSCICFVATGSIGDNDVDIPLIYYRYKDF

TbUBA1b [3] = target: T3, TbUBA1b (Trypanosoma brucei, UniProt Q38DE8)
T3 construct: gene Tb09.211.3610; GST fusion cleaved with thrombin
T3 sequence (Q38DE8 1-1214): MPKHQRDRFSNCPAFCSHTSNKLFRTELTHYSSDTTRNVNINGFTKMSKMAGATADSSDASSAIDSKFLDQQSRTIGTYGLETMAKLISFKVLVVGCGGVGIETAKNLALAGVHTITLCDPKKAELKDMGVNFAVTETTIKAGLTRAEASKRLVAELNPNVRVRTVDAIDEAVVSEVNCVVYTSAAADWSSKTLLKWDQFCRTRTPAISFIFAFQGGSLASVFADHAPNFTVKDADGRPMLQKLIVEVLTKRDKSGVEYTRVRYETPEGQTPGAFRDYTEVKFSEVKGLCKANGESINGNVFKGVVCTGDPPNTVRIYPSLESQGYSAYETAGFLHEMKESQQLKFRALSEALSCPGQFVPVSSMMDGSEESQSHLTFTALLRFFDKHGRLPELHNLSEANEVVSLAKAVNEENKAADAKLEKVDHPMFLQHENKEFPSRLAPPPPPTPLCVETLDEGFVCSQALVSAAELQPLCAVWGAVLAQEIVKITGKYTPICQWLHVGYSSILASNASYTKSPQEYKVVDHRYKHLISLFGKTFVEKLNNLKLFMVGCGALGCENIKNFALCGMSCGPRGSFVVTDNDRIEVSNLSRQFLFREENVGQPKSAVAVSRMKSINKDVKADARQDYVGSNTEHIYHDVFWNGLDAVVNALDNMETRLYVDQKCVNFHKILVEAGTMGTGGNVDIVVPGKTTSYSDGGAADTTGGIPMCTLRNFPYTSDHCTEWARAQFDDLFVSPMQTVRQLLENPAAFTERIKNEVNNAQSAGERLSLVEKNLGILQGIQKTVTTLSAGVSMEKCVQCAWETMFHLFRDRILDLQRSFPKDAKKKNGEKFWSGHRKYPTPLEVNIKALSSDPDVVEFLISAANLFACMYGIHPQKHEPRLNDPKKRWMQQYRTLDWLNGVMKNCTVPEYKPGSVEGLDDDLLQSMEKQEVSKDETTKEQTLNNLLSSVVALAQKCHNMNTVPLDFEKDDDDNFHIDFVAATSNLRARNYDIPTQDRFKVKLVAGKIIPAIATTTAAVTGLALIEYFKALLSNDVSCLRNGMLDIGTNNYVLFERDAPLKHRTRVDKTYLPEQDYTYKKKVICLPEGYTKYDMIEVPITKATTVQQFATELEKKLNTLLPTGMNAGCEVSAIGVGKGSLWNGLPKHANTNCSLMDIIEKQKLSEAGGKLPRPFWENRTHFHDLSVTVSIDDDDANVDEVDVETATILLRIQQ

TbUBA1b [4] = target: T4, TbUBA1b (Trypanosoma brucei, UniProt Q38DE8)
T4 construct: gene Tb09.211.3610; GST fusion cleaved with thrombin; with ubiquitin

TbUBA1a [5] = target: T5, TbUBA1a (Trypanosoma brucei, UniProt Q57XC5, E559D/Q534P/S560A)
T5 construct: gene Tb08.26A17.680; GST fusion cleaved with HRV 3C; with ubiquitin
T5 sequence (Q57XC5 whole entry E559D/Q534P/S560A, the tested form may be a part): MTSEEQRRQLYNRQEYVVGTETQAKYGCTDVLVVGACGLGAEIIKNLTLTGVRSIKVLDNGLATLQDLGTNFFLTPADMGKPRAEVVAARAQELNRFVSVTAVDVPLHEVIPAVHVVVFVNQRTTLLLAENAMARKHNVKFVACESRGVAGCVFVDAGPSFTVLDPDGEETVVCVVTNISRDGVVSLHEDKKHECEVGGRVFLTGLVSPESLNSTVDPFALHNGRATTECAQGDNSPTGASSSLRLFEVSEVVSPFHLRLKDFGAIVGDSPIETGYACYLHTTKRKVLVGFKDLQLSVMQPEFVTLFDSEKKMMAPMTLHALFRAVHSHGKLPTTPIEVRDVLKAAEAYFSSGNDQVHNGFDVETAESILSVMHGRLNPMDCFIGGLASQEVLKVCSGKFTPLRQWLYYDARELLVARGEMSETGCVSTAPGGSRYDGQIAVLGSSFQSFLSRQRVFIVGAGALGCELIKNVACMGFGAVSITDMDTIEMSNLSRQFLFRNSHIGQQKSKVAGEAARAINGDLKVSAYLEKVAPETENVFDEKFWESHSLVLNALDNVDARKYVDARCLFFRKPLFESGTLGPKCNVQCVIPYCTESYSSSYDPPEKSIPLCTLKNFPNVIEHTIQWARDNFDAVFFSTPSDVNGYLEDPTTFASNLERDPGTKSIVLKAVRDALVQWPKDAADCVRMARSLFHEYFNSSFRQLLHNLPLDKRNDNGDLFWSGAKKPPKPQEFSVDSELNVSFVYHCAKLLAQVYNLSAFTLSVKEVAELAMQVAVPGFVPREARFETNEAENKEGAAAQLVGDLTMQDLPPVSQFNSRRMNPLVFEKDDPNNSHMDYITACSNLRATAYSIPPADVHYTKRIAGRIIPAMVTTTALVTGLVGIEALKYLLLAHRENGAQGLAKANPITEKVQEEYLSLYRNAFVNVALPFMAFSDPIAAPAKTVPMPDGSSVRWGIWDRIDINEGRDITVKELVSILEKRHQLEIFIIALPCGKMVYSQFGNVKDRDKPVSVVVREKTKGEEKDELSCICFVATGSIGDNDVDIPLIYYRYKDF

TbUBA1b [6] = target: T6, TbUBA1b (Trypanosoma brucei, UniProt Q38DE8, E656D/T657A)
T6 construct: gene Tb09.211.3610; GST fusion cleaved with thrombin; with ubiquitin

SMILES	E1-E2 transthioesterification assay (UbcH5a, Coomassie gel), recombinant purifie [1]	E1-E2 transthioesterification assay (UbcH5a, Coomassie gel), recombinant purifie (TbUBA1a [2])	E1-E2 transthioesterification assay (UbcH5a, Coomassie gel), recombinant purifie (TbUBA1b [3])	IC50 (TbUBA1b [4]) [µM]	IC50 (TbUBA1a [5]) [µM]	E1-E2 transthioesterification assay (UbcH5a, Coomassie gel), recombinant purifie (TbUBA1b [6])
CCOC(=O)c1ccc(N2NC(=O)C(=Cc3ccc([N+](=O)[O-])o3)C2=O)cc1 [PYR-41]	we observed very little difference between inhibition of human and the T. brucei UBA1s (Fig. 3C)	the TbUBA1s were slightly (~two-fold) more sensitive to PYR-41 than hUBA1	the TbUBA1s were slightly (~two-fold) more sensitive to PYR-41 than hUBA1			
NS(=O)(=O)OC[C@H]1C[C@@H](Nc2ccnc3cc(-c4cccc(SC(F)(F)F)c4)nn23)[C@H](O)[C@@H]1O [TAK-243]				159	12	The increase in inhibition of the double mutant E656D, T657A was almost as large as that of the triple mutant
